# Entries after “also recorded” stand apart in the source; their conditions may differ. Ends that are not written are not given here.
# What was measured:
# Type in all cases: cell-based, human
# [1] = test system: peptide-pulsed A24LCL cells; experiment: IFN-gamma ELISA assay on CTL lines (HLA-A*2402); conditions: target cells pulsed with corresponding peptide vs without peptide
# [2] = test system: peptide-pulsed A24LCL cells; experiment: IFN-gamma ELISPOT assay on CTLs induced with HLA-A*2402 restricted peptides; conditions: against peptide-pulsed target cells compared with control without peptide
# [3] = test system: peptide-pulsed T2 cells; experiment: IFN-gamma ELISPOT assay on CTLs induced with HLA-A*0201 restricted peptides; conditions: against peptide-pulsed target cells compared with control without peptide
# [4] = test system: peptide-pulsed T2 cells; experiment: IFN-gamma ELISA assay on CTL lines (HLA-A*0201); conditions: target cells pulsed with corresponding peptide vs without peptide
# [5] = test system: peptide-pulsed T2 cells; experiment: IFN-gamma ELISA assay on CTL clones established by limiting dilution (HLA-A*0201); conditions: peptide-pulsed target cells
# Procedure: The dilutions were made to have 0.3, 1, and 3 CTLs/well in 96 round-bottomed micro titer plate (Nalge Nunc International). CTLs were cultured with 1×10^4 cells/well of 2 kinds of human B-lymphoblastoid cell lines, 30 ng/ml of anti-CD3 antibody, and 125 U/ml of IL-2 in a total of 150 and/well of AIM-VMedium containing 5% AS. 50 mcl/well of IL-2 were added to the medium 10 days later so to reach a final concentration of 125 U/ml IL-2. CTL activity was tested on the 14th day, and CTL clones were expanded using the same method as described above (Uchida N et al., Clin Cancer Res 2004 Dec. 15, 10(24): 8577-86; Suda T et al., Cancer Sci 2006 May, 97(5): 411-9; Watanabe T et al., Cancer Sci 2005 August, 96(8): 498-506).
# Specifically, peptide-pulsed A24 or T2 LCL (1×10^4/well) was prepared as stimulator cells. Cultured cells in 48 wells were used as responder cells. IFN-gamma ELISPOT assay and IFN-gamma ELISA assay were performed under manufacture procedure.
substance,measurement,setting,value
RSLLLSTKQL [SEQ ID NO: 62],IFN-gamma production of established CTL lines (ELISA),[1],potent IFN-gamma production
same,IFN-gamma production of peptide-induced CTLs (ELISPOT),[2]; listed as IQGAP3-A24-10-1363,potent IFN-gamma production ability
MYQLELAVL [SEQ ID NO: 6],IFN-gamma production of established CTL lines (ELISA),[1],no specific IFN-gamma production
same,IFN-gamma production of established CTL lines (ELISA),[1]; listed as IQGAP3-A24-9-417,typical negative data of CTL response
same,IFN-gamma production of peptide-induced CTLs (ELISPOT),[2]; listed as IQGAP3-A24-9-417,typical negative data of CTL response; also recorded: no specific IFN-gamma production
CFAPSVVPL [SEQ ID NO: 21],IFN-gamma production of established CTL lines (ELISA),[1],potent IFN-gamma production
same,IFN-gamma production of peptide-induced CTLs (ELISPOT),[2]; listed as IQGAP3-A24-9-74,potent IFN-gamma production ability
FLRTWLPAV [SEQ ID NO: 101],IFN-gamma production of peptide-induced CTLs (ELISPOT),[3]; listed as IQGAP3-A02-9-756,potent IFN-gamma production ability
same,IFN-gamma production of established CTL lines (ELISA),[4],potent IFN-gamma production
RQNVAYQYL [SEQ ID NO: 25],IFN-gamma production of established CTL lines (ELISA),[1],potent IFN-gamma production
same,IFN-gamma production of peptide-induced CTLs (ELISPOT),[2]; listed as IQGAP3-A24-9-26,potent IFN-gamma production ability
RNGVLLAKL [SEQ ID NO: 32],IFN-gamma production of established CTL lines (ELISA),[1],potent IFN-gamma production
same,IFN-gamma production of peptide-induced CTLs (ELISPOT),[2]; listed as IQGAP3-A24-9-63,potent IFN-gamma production ability
RVVYCIHAL [SEQ ID NO: 29],IFN-gamma production of established CTL lines (ELISA),[1],potent IFN-gamma production
same,IFN-gamma production of peptide-induced CTLs (ELISPOT),[2]; listed as IQGAP3-A24-9-137,potent IFN-gamma production ability
GLVDeLAKDI (GLVDELAKDI; not fully specified (residue 5); printed as GLVDeLAKDI) [SEQ ID NO: 145],IFN-gamma production of peptide-induced CTLs (ELISPOT),[3]; listed as IQGAP3-A02-10-1461,potent IFN-gamma production ability
same,IFN-gamma production of CTL clones (ELISA),[5]; listed as IQGAP3-A02-10-1461,potent IFN-gamma production
same,IFN-gamma production of established CTL lines (ELISA),[4],potent IFN-gamma production
LEAYqHLFYL (LEAYQHLFYL; not fully specified (residue 5); printed as LEAYqHLFYL) [SEQ ID NO: 139],IFN-gamma production of peptide-induced CTLs (ELISPOT),[3]; listed as IQGAP3-A02-10-953,potent IFN-gamma production ability
same,IFN-gamma production of established CTL lines (ELISA),[4],potent IFN-gamma production
SMYQlELAVL (SMYQLELAVL; not fully specified (residue 5); printed as SMYQlELAVL) [SEQ ID NO: 142],IFN-gamma production of peptide-induced CTLs (ELISPOT),[3]; listed as IQGAP3-A02-10-416,potent IFN-gamma production ability
same,IFN-gamma production of established CTL lines (ELISA),[4],potent IFN-gamma production
KIGGILANEL [SEQ ID NO: 56],IFN-gamma production of established CTL lines (ELISA),[1],potent IFN-gamma production
same,IFN-gamma production of peptide-induced CTLs (ELISPOT),[2]; listed as IQGAP3-A24-10-191,potent IFN-gamma production ability
SLFLFRLGL [SEQ ID NO: 75],IFN-gamma production of peptide-induced CTLs (ELISPOT),[3]; listed as IQGAP3-A02-9-146,potent IFN-gamma production ability
same,IFN-gamma production of CTL clones (ELISA),[5]; listed as IQGAP3-A02-9-146,potent IFN-gamma production
same,IFN-gamma production of established CTL lines (ELISA),[4],potent IFN-gamma production
FLAEaELLKL (FLAEAELLKL; not fully specified (residue 5); printed as FLAEaELLKL) [SEQ ID NO: 113],IFN-gamma production of peptide-induced CTLs (ELISPOT),[3],no specific IFN-gamma production
VYCIHALSLF [SEQ ID NO: 40],IFN-gamma production of established CTL lines (ELISA),[1],potent IFN-gamma production
same,IFN-gamma production of peptide-induced CTLs (ELISPOT),[2]; listed as IQGAP3-A24-10-139,potent IFN-gamma production ability
HALGAVAQLL [SEQ ID NO: 67],IFN-gamma production of established CTL lines (ELISA),[1],potent IFN-gamma production
same,IFN-gamma production of peptide-induced CTLs (ELISPOT),[2]; listed as IQGAP3-A24-10-1207,potent IFN-gamma production ability
IMDkIGLLV [SEQ ID NO: 150],IFN-gamma production of peptide-induced CTLs (ELISPOT),[3]; listed as IQGAP3-A02-10-897,potent IFN-gamma production ability
same,IFN-gamma production of established CTL lines (ELISA),[4],potent IFN-gamma production
QYEGVAVMKL [SEQ ID NO: 35],IFN-gamma production of established CTL lines (ELISA),[1],potent IFN-gamma production
same,IFN-gamma production of peptide-induced CTLs (ELISPOT),[2]; listed as IQGAP3-A24-10-1600,potent IFN-gamma production ability
LLAKlGHCFA (LLAKLGHCFA; not fully specified (residue 5); printed as LLAKlGHCFA) [SEQ ID NO: 143],IFN-gamma production of peptide-induced CTLs (ELISPOT),[3]; listed as IQGAP3-A02-10-67,potent IFN-gamma production ability
same,IFN-gamma production of CTL clones (ELISA),[5]; listed as IQGAP3-A02-10-67,potent IFN-gamma production
same,IFN-gamma production of established CTL lines (ELISA),[4],potent IFN-gamma production
VYKVVGNLL [SEQ ID NO: 4],IFN-gamma production of established CTL lines (ELISA),[1],potent IFN-gamma production
same,IFN-gamma production of peptide-induced CTLs (ELISPOT),[2]; listed as IQGAP3-A24-9-1167,potent IFN-gamma production ability
KALQDPALAL [SEQ ID NO: 57],IFN-gamma production of established CTL lines (ELISA),[1],potent IFN-gamma production
same,IFN-gamma production of peptide-induced CTLs (ELISPOT),[2]; listed as IQGAP3-A24-10-314,potent IFN-gamma production ability
RLDIALRNLL [SEQ ID NO: 63],IFN-gamma production of established CTL lines (ELISA),[1],potent IFN-gamma production
same,IFN-gamma production of peptide-induced CTLs (ELISPOT),[2]; listed as IQGAP3-A24-10-1114,potent IFN-gamma production ability
YLLQtQPIYL (YLLQTQPIYL; not fully specified (residue 5); printed as YLLQtQPIYL) [SEQ ID NO: 111],IFN-gamma production of peptide-induced CTLs (ELISPOT),[3]; listed as IQGAP3-A02-10-961,potent IFN-gamma production ability
same,IFN-gamma production of established CTL lines (ELISA),[4],potent IFN-gamma production
AYQHLFYLL [SEQ ID NO: 2],IFN-gamma production of established CTL lines (ELISA),[1],potent IFN-gamma production
same,IFN-gamma production of peptide-induced CTLs (ELISPOT),[2]; listed as IQGAP3-A24-9-955,potent IFN-gamma production ability
YYSQYIRACL [SEQ ID NO: 37],IFN-gamma production of established CTL lines (ELISA),[1],potent IFN-gamma production
same,IFN-gamma production of peptide-induced CTLs (ELISPOT),[2]; listed as IQGAP3-A24-10-1507,potent IFN-gamma production ability
KVNVNLLIFL [SEQ ID NO: 55],IFN-gamma production of established CTL lines (ELISA),[1],potent IFN-gamma production
same,IFN-gamma production of peptide-induced CTLs (ELISPOT),[2]; listed as IQGAP3-A24-10-1614,potent IFN-gamma production ability
KAQELGLVEL [SEQ ID NO: 53],IFN-gamma production of established CTL lines (ELISA),[1],potent IFN-gamma production
same,IFN-gamma production of peptide-induced CTLs (ELISPOT),[2]; listed as IQGAP3-A24-10-345,potent IFN-gamma production ability
QLHYqDLLQL (QLHYQDLLQL; not fully specified (residue 5); printed as QLHYqDLLQL) [SEQ ID NO: 140],IFN-gamma production of peptide-induced CTLs (ELISPOT),[3]; listed as IQGAP3-A02-10-1590,potent IFN-gamma production ability
same,IFN-gamma production of established CTL lines (ELISA),[4],potent IFN-gamma production
ILVHaPHPPL (ILVHAPHPPL; not fully specified (residue 5); printed as ILVHaPHPPL) [SEQ ID NO: 148],IFN-gamma production of peptide-induced CTLs (ELISPOT),[3]; listed as IQGAP3-A02-10-842,potent IFN-gamma production ability
same,IFN-gamma production of established CTL lines (ELISA),[4],potent IFN-gamma production
KLGHcFAPSV (KLGHCFAPSV; not fully specified (residue 5); printed as KLGHcFAPSV) [SEQ ID NO: 114],IFN-gamma production of peptide-induced CTLs (ELISPOT),[3]; listed as IQGAP3-A02-10-70,potent IFN-gamma production ability
same,IFN-gamma production of established CTL lines (ELISA),[4],potent IFN-gamma production
PYDVTPEQAL [SEQ ID NO: 49],IFN-gamma production of established CTL lines (ELISA),[1],potent IFN-gamma production
same,IFN-gamma production of peptide-induced CTLs (ELISPOT),[2]; listed as IQGAP3-A24-10-1097,potent IFN-gamma production ability
LLPAaGLDDV (LLPAAGLDDV; not fully specified (residue 5); printed as LLPAaGLDDV) [SEQ ID NO: 125],IFN-gamma production of peptide-induced CTLs (ELISPOT),[3]; listed as IQGAP3-A02-10-548,potent IFN-gamma production ability
same,IFN-gamma production of established CTL lines (ELISA),[4],potent IFN-gamma production
